Reference: patent US20170252298A1, “Performance-Enhancing Nasal Irrigation” (Backed-by-Science, Inc., priority 2014, published 2017)

System: nasal cilia
Assay: nasal ciliary beat frequency (CBF), whole field analysis over time
Type: cell-based
Parameters: Mean CBF (WFA): unit: Hz
Experimental: The ATP concentration inside the cell is typically 1-10 millimolar (mM). We started with an ATP concentration of 1 mg/ml based on literature data and from testing done by Dr. James Palmer at University of Pennsylvania on ATP concentration for increasing nasal ciliary beat frequency. […] 1 mg/ml from the below charts=1 mg/ml=1 gram per liter=1/507 g/mol=2 mM. Most intracellular ATP concentrations in animals fall within the range of 0.5-10 mM. [table]

[1] = Plate 2, elapsed 0:08:10, ATP 1 mg/ml
[2] = Plate 2, elapsed 0:08:20, ATP 1 mg/ml
[3] = Plate 2, elapsed 0:08:30, ATP 1 mg/ml
[4] = Plate 2, elapsed 0:08:40, ATP 1 mg/ml
[5] = Plate 2, elapsed 0:08:50, ATP 1 mg/ml
[6] = Plate 2, elapsed 0:09:00, ATP 1 mg/ml
[7] = Plate 2, elapsed 0:09:10, ATP 1 mg/ml
[8] = Plate 2, elapsed 0:09:20, ATP 1 mg/ml
[9] = Plate 2, elapsed 0:09:30, ATP 1 mg/ml
[10] = Plate 2, elapsed 0:09:40, ATP 1 mg/ml
[11] = Plate 2, elapsed 0:09:50, ATP 1 mg/ml
[12] = Plate 2, elapsed 0:10:00, ATP 1 mg/ml
[13] = Plate 2, elapsed 0:10:10, ATP 1 mg/ml
[14] = Plate 2, elapsed 0:10:20, ATP 1 mg/ml
[15] = Plate 2, elapsed 0:10:30, ATP 1 mg/ml
[16] = Plate 2, elapsed 0:10:40, ATP 1 mg/ml
[17] = Plate 2, elapsed 0:10:50, ATP 1 mg/ml
[18] = Plate 2, elapsed 0:11:00, ATP 1 mg/ml
[19] = Plate 2, elapsed 0:11:10, ATP 1 mg/ml
[20] = Plate 2, elapsed 0:15:10, ATP 1 mg/ml
[21] = Plate 2, elapsed 0:15:20, ATP 1 mg/ml
[22] = Plate 2, elapsed 0:15:30, ATP 1 mg/ml
[23] = Plate 2, elapsed 0:15:40, ATP 1 mg/ml
[24] = Plate 2, elapsed 0:15:50, ATP 1 mg/ml
[25] = Plate 2, elapsed 0:16:00, ATP 1 mg/ml
[26] = Plate 2, elapsed 0:16:10, ATP 1 mg/ml
[27] = Plate 2, elapsed 0:16:20, ATP 1 mg/ml
[28] = Plate 2, elapsed 0:16:30, ATP 1 mg/ml
[29] = Plate 2, elapsed 0:16:40, ATP 1 mg/ml
[30] = Plate 2, elapsed 0:16:50, ATP 1 mg/ml
[31] = Plate 2, elapsed 0:17:00, ATP 1 mg/ml
[32] = Plate 2, elapsed 0:17:10, ATP 1 mg/ml
[33] = Plate 2, elapsed 0:17:20, ATP 1 mg/ml
[34] = Plate 2, elapsed 0:17:30, ATP 1 mg/ml
[35] = Plate 2, elapsed 0:17:40, ATP 1 mg/ml
[36] = Plate 2, elapsed 0:17:50, ATP 1 mg/ml
[37] = Plate 2, elapsed 0:18:00, ATP 1 mg/ml
[38] = Plate 2, elapsed 0:18:10, ATP 1 mg/ml
[39] = Plate 2, elapsed 0:18:20, ATP 1 mg/ml
[40] = Plate 2, elapsed 0:18:30, ATP 1 mg/ml
[41] = Plate 2, elapsed 0:18:40, ATP 1 mg/ml
[42] = Plate 2, elapsed 0:18:50, ATP 1 mg/ml
[43] = Plate 2, elapsed 0:19:00, ATP 1 mg/ml
[44] = Plate 2, elapsed 0:19:10, ATP 1 mg/ml
[45] = Plate 2, elapsed 0:19:20, ATP 1 mg/ml
[46] = Plate 2, elapsed 0:19:30, ATP 1 mg/ml
[47] = Plate 2, elapsed 0:19:40, ATP 1 mg/ml
[48] = Plate 2, elapsed 0:19:50, ATP 1 mg/ml
[49] = Plate 2, elapsed 0:20:00, ATP 1 mg/ml

Nc1ncnc2c1ncn2[C@@H]1O[C@H](COP(=O)(O)OP(=O)(O)OP(=O)(O)O)[C@@H](O)[C@H]1O [ATP, adenosine triphosphate]
Active Area [1]: 37.97%
Mean CBF (WFA) [1]: 8.3
Active Area [2]: 38.66%
Mean CBF (WFA) [2]: 8.29
Active Area [3]: 39%
Mean CBF (WFA) [3]: 8.27
Active Area [4]: 36.32%
Mean CBF (WFA) [4]: 8.33
Active Area [5]: 39.05%
Mean CBF (WFA) [5]: 8.36
Active Area [6]: 37.12%
Mean CBF (WFA) [6]: 8.36
Active Area [7]: 38.83%
Mean CBF (WFA) [7]: 8.31
Active Area [8]: 38.39%
Mean CBF (WFA) [8]: 8.31
Active Area [9]: 37.54%
Mean CBF (WFA) [9]: 8.37
Active Area [10]: 36.11%
Mean CBF (WFA) [10]: 8.42
Active Area [11]: 35.79%
Mean CBF (WFA) [11]: 8.4
Active Area [12]: 36.58%
Mean CBF (WFA) [12]: 8.44
Active Area [13]: 36.77%
Mean CBF (WFA) [13]: 8.49
Active Area [14]: 37.58%
Mean CBF (WFA) [14]: 8.39
Active Area [15]: 37.33%
Mean CBF (WFA) [15]: 8.41
Active Area [16]: 37.82%
Mean CBF (WFA) [16]: 8.41
Active Area [17]: 35.58%
Mean CBF (WFA) [17]: 8.37
Active Area [18]: 38.06%
Mean CBF (WFA) [18]: 8.43
Active Area [19]: 38.67%
Mean CBF (WFA) [19]: 8.42
Active Area [20]: 41.31%
Mean CBF (WFA) [20]: 8.44
Active Area [21]: 41.96%
Mean CBF (WFA) [21]: 8.48
Active Area [22]: 39.32%
Mean CBF (WFA) [22]: 8.43
Active Area [23]: 39.9%
Mean CBF (WFA) [23]: 8.44
Active Area [24]: 40.84%
Mean CBF (WFA) [24]: 8.41
Active Area [25]: 41.99%
Mean CBF (WFA) [25]: 8.36
Active Area [26]: 42.7%
Mean CBF (WFA) [26]: 8.37
Active Area [27]: 43.14%
Mean CBF (WFA) [27]: 8.39
Active Area [28]: 42.52%
Mean CBF (WFA) [28]: 8.36
Active Area [29]: 42.09%
Mean CBF (WFA) [29]: 8.38
Active Area [30]: 42.85%
Mean CBF (WFA) [30]: 8.33
Active Area [31]: 38.98%
Mean CBF (WFA) [31]: 8.32
Active Area [32]: 41.85%
Mean CBF (WFA) [32]: 8.27
Active Area [33]: 41.7%
Mean CBF (WFA) [33]: 8.24
Active Area [34]: 42.78%
Mean CBF (WFA) [34]: 8.29
Active Area [35]: 40.85%
Mean CBF (WFA) [35]: 8.32
Active Area [36]: 42.27%
Mean CBF (WFA) [36]: 8.27
Active Area [37]: 38.92%
Mean CBF (WFA) [37]: 8.27
Active Area [38]: 40.18%
Mean CBF (WFA) [38]: 8.29
Active Area [39]: 42.69%
Mean CBF (WFA) [39]: 8.27
Active Area [40]: 42.91%
Mean CBF (WFA) [40]: 8.27
Active Area [41]: 41.71%
Mean CBF (WFA) [41]: 8.24
Active Area [42]: 42.85%
Mean CBF (WFA) [42]: 8.28
Active Area [43]: 43.3%
Mean CBF (WFA) [43]: 8.24
Active Area [44]: 42.12%
Mean CBF (WFA) [44]: 8.22
Active Area [45]: 42.33%
Mean CBF (WFA) [45]: 8.25
Active Area [46]: 43.77%
Mean CBF (WFA) [46]: 8.23
Active Area [47]: 44.6%
Mean CBF (WFA) [47]: 8.25
Active Area [48]: 43.27%
Mean CBF (WFA) [48]: 8.24
Active Area [49]: 43.87%
Mean CBF (WFA) [49]: 8.26
ATP concentration sufficient to give an increase in ciliary beat frequency (testing by Dr. James Palmer, University of Pennsylvania): 1 mg/mL
